Reference: paper PMC12216609, “Inhibitors of eIF1A-ribosome interaction unveil uORF-dependent regulation of translation initiation and antitumor and antiviral effects” (The EMBO Journal, 2025)
Where “and” joins values, the source holds several entries; their conditions need not be identical. Equal values may be shown once. Read-outs that look alike come from different tables or passages of the source.

Assays:
[1] = system: cap-proximal AUG GFP reporter in HEK293T cells; type: cell-based; settings: GFP WB densitometry; 20 µM overnight; dmso 0.965946
Source text: Translation from an AUG preceded by a very short 5'UTR (less than 30 nt) is usually inefficient and frequently bypassed, resulting in initiation from a downstream AUG, a phenomenon known as leaky scanning. […] To examine the impact of 1Ais on short 5'UTR initiation, we used a GFP reporter gene containing an AUG located 16 nt downstream from the 5' end followed by a second in-frame downstream AUG (Fig. 1F; Appendix Fig. S1B). Cells were transfected with this GFP reporter gene followed by exposure to DMSO (vehicle) and 1Ais. Initiations from upstream (US) or downstream (DS) AUGs were determined by western blot (WB) with anti-GFP antibodies and the ratio between the US and DS AUG was determined.
For the analysis of translation from very short 5'UTR and Leaky scanning, HEK293T cells were transfected with a GFP (20 ng/well) reporter gene driven by a cap-proximal and downstream AUGs (Elfakess et al, [2011]) together with a luciferase reporter gene (100 ng/well) as normalizing control and treated with 20 µM of 1Ais as described above. GFP levels were determined by Western blot (WB) (GFP antibody, Abcam #ab290) and quantified by densitometry (ImageJ) and normalized to the measured luciferase activity.
HEK293T cells were transfected with the GFP reporter gene schematically shown on the top. The first
AUG is […] from the 5’ end and the downstream AUG is in the same frame. Six hours after transfection, cells were treated with 1Ais. After overnight exposure to 1Ais, GFP expression was analyzed by WB using anti -GFP antibodies.
US/DS ratio was determined by densitometry and represents the long protein expression (upstream AUG, US) vs the […]
biological replicates. (C-D) Analysis of reporter genes mRNA levels after 1Ais treatment.

eIF1A = target: T1, eIF1A (Homo sapiens, UniProt P47813); type: binding; settings: for fluorescence ratio, eIF1A: background-corrected, relative to DMSO or lowest 1Ai concentration, replicate columns; for WT eIF1A IC50: fluorescence binding; for IC50 concentration (µM), WT eIF1A: summary table, fluorescence binding assay
T1 construct: His-bdSUMO (cleaved yes); made in house; host or cells: E. coli BL-21
T1 sequence (P47813 whole entry): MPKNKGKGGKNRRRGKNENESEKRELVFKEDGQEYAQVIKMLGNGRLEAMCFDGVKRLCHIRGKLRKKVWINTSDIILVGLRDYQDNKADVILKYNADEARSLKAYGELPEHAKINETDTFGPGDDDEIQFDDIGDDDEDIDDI

[2] = system: CUG/GUG vs AUG start codon luciferase reporters in HEK293T cells; experiment: Near-cognate AUG starting codon fidelity reporter assay (GUG, CUG vs AUG); type: cell-based; settings: for CUG vs AUG (%): CUG start codon reporter relative to AUG reporter (AUG = 100); for CUG vs AUG (%) / GUG vs AUG (%): compound at 20uM (summary head), single-experiment calculation; for GUG vs AUG (%): GUG start codon reporter relative to AUG reporter (AUG = 100); for average CUG and GUG / average CUG and GUG relative to DMSO / CUG Average / GUG Average: NUG experiment; for CUG Average: CUG vs AUG reporter; for GUG Average: GUG vs AUG reporter; for NUG (Final data, Fig. 1E): average CUG and GUG relative to DMSO, 20 µM overnight; for GUG vs AUG data (%) / GUG vs AUG (%) Average: compound at 20uM; for GUG vs AUG data (%): individual repeat; for GUG vs AUG (%) Average: summary average of repeats, DMSO control average […]
RPS10 = target: T2, RPS10 (Homo sapiens, UniProt P46783); type: binding
T2 construct: made in house; host or cells: E. coli BL-21

[3] = system: IRF7 5'UTR firefly luciferase reporter in HEK293T cells; settings: 20 µM; for Reference vs IRF7 (Final data, Fig. 1E): 1/Result, relative to DMSO; for LONG (summary - All), normalized to DMSO: Long reporter; for LONG (summary - All), normalized to DMSO / SHORT (summary - All), normalized to DMSO: individual replicates, outliers excluded, DMSO = 1; for SHORT (summary - All), normalized to DMSO: Short reporter; for average ( long vs short ratio): summary - All;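 as to all read-outs here: luciferase signal corrected by a co-transfected GFP reporter for transfection efficiency, read after overnight compound exposure, with Long and Short reporters differing in 5'UTR length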
[4] = read-out: IC50 (line under RPS10 binding data)
[5] = summary table, fluorescence binding assay, read-out: IC50 concentration (µM), RPS10

SMILES | US/DS ratio, average [1] | fluorescence ratio, eIF1A (eIF1A; 1Ai conc. 0.25 uM) | fluorescence ratio, eIF1A (eIF1A; 1Ai conc. 0.5 uM) | fluorescence ratio, eIF1A (eIF1A; 1Ai conc. 1 uM) | fluorescence ratio, eIF1A (eIF1A; 1Ai conc. 2 uM) | fluorescence ratio, eIF1A (eIF1A; 1Ai conc. 4 uM) | fluorescence ratio, eIF1A (eIF1A; 1Ai conc. 8 uM) | fluorescence ratio, eIF1A (eIF1A; 1Ai conc. 16 uM) | fluorescence ratio, eIF1A (eIF1A; 1Ai conc. 32 uM) | fluorescence ratio, eIF1A (eIF1A; 1Ai conc. 64 uM) | fluorescence ratio, eIF1A (eIF1A; 1Ai conc. 256 uM) | WT eIF1A IC50 (eIF1A) | IC50 concentration (µM), WT eIF1A (eIF1A) | CUG vs AUG (%) [2] | GUG vs AUG (%) [2] | average CUG and GUG [2] | average CUG and GUG relative to DMSO [2] | CUG Average [2] | GUG Average [2] | NUG (Final data, Fig. 1E) [2] | also measured
C=CCNC(=O)CN1CCN(Cc2nc3cc(-c4ccc(Cl)cc4)sc3c(=O)[nH]2)CC1 [1Ai-1524] | 0.7201 | 1.099 and 1 | 1.123 and 1.057 | 1.12 and 1.013 | 1.158 and 0.9647 | 1.086 and 0.8847 | 0.9254 and 0.8076 | 0.9496 and 0.7767 | 1.01 and 0.848 | 0.9931 and 0.7702 | 1.036 and 1.149 | No binding | No binding | 6.424% | 0.742% | 7.9532 | 1.763 | 12.0643 | 3.842 | 1.763 | GUG vs AUG data (%) [2]: 4.35% and 2.64% and 2.99% and 5.39%; GUG vs AUG (%) Average [2]: 3.84%; RPS10 fluorescence ratio to control (RPS10; 1Ai conc. 0.25 uM): 1.173; RPS10 fluorescence ratio to control (RPS10; 1Ai conc. 0.5 uM): 1.067; RPS10 fluorescence ratio to control (RPS10; 1Ai conc. 1 uM): 0.76; RPS10 fluorescence ratio to control (RPS10; 1Ai conc. 2 uM): 0.8336; RPS10 fluorescence ratio to control (RPS10; 1Ai conc. 4 uM): 0.607; RPS10 fluorescence ratio to control (RPS10; 1Ai conc. 8 uM): 0.7612; RPS10 fluorescence ratio to control (RPS10; 1Ai conc. 16 uM): 0.4083; RPS10 fluorescence ratio to control (RPS10; 1Ai conc. 32 uM): 0.3654; RPS10 fluorescence ratio to control (RPS10; 1Ai conc. 64 uM): 0.4197; RPS10 fluorescence ratio to control (RPS10; 1Ai conc. 256 uM): 0.05131; IC50 (RPS10; [4]): 16.8 µM; IC50 (RPS10; read-out: RPS10 IC50): 16.8 µM; IC50 (RPS10; [5]): 16.8 µM; Reference vs IRF7 (Final data, Fig. 1E) [3]: 1.878; LONG (summary - All), normalized to DMSO [3]: 0.62 and 0.21 and 0.43 and 0.52; SHORT (summary - All), normalized to DMSO [3]: 0.50 and 0.66 and 0.41; average ( long vs short ratio) [3]: 0.848
CCOC(=O)c1ccsc1NC(=O)CN1C(=O)NC(C)(c2cccc3ccccc23)C1=O (stereo not shown) [1Ai-1861] | 0.86 | 1.039 and 0.974 | 1.136 and 0.9941 | 1.143 and 0.9966 | 1.167 and 0.9386 | 1.169 and 0.9347 | 1.065 and 0.8919 | 1.1254 and 0.8973 | 1.149 and 0.9563 | 1.304 and 0.9843 | 1.359 and 0.9897 | No binding | No binding | 14.0136% | 2.535% | 6.257 | 1.387 | 9.413 | 3.101 | 1.387 | IC50 (eIF1A; eIF1A, from the titration data, read-out: IC50 (eIF1A titration block)): 71 µM; GUG vs AUG data (%) [2]: 2.64% and 2.15% and 3.17% and 4.44%; GUG vs AUG (%) Average [2]: 3.10%; RPS10 fluorescence ratio to control (RPS10; 1Ai conc. 0.25 uM): 1; RPS10 fluorescence ratio to control (RPS10; 1Ai conc. 0.5 uM): 0.8226; RPS10 fluorescence ratio to control (RPS10; 1Ai conc. 1 uM): 0.9775; RPS10 fluorescence ratio to control (RPS10; 1Ai conc. 2 uM): 0.7185; RPS10 fluorescence ratio to control (RPS10; 1Ai conc. 4 uM): 0.4957; RPS10 fluorescence ratio to control (RPS10; 1Ai conc. 8 uM): 0.1947; RPS10 fluorescence ratio to control (RPS10; 1Ai conc. 16 uM): 0.1506; RPS10 fluorescence ratio to control (RPS10; 1Ai conc. 32 uM): 0.08052; RPS10 fluorescence ratio to control (RPS10; 1Ai conc. 64 uM): 0.3768; RPS10 fluorescence ratio to control (RPS10; 1Ai conc. 256 uM): 0.398; IC50 (RPS10; [4]): 3.7 µM; IC50 (RPS10; read-out: RPS10 IC50): 3.7 µM; IC50 (RPS10; [5]): 3.7 µM; Reference vs IRF7 (Final data, Fig. 1E) [3]: 1.411; LONG (summary - All), normalized to DMSO [3]: 0.0542 and 0.33 and 0.67 and 0.24; SHORT (summary - All), normalized to DMSO [3]: 0.28 and 0.35 and 0.52 and 0.68; average ( long vs short ratio) [3]: 0.709
